According to patent publication US12144795B2, “Cannabidiol compositions having modified cannabinoid profiles” (priority 2018, dated 2024):
In brackets after ≈: the same amount, converted by molar mass. Like-named read-outs stand apart in the source and are kept apart here.

Experiments:
[1] = Cannabidiol solubility in neat solvents and mixtures, isooctane solubility curve; assay type: physicochemical; settings: for solubility: read-out: Solubility at RT
Text: Isooctane was selected as the final crystallization solvent due the low solubility and similar properties to heptane, i.e., low viscosity and boiling point relative to other higher hydrocarbons (Table 33). Based on the solubility and desire to maximize yield, an isooctane volume of 4.0 L/kg was selected as an appropriate crystallization concentration. Prior to crystallization, it was desired to fully dissolve the CBD in isooctane and filter the process stream. […] The isolation temperature of −20° C. was chosen to maximize the yield of the CBD from the final crystallization.

[2] = Stability studies of CBD prepared via Protocol 3 (crude, pure, 2x recrystallized; 5° C., 25° C./60% RH, 40° C./75% RH); assay type: physicochemical
[3] = Crystallization by single solvent drop grinding, HT-XRPD before and after AAC; assay type: physicochemical
Experimental: For the grinding experiments, 40 mg cannabidiol was placed in a stainless steel container with 10 μL solvent and two steel beads. The vials were shaken for 1 hour at 30 Hz, after which the solids were collected for XRPD analysis. All of the samples were classified as Form A based on HT-XRPD analysis.

[4] = Liquid diffusion crystallization, solid form by HT-XRPD; assay type: physicochemical
Experimental: A solution of cannabidiol of about 75 mg/mL was prepared and a layer of anti-solvent was carefully added to the vial. These experiments were performed with water as anti-solvent because of the larger difference in density between solvent and anti-solvent.

[5] = assay type: physicochemical
[6] = Vapor-diffusion-into-solution crystallization, solid form after evaporation; assay type: physicochemical
Text: The open vials were placed in a larger container with anti-solvent and the vapors were allowed to diffuse into the cannabidiol solution for two weeks. The effect of the anti-solvent, however, was too low to induce any precipitation of cannabidiol and, therefore, it was decided to evaporate the mother liquors and analyze the remaining solids. Crystalline solid was only found after evaporation of the Toluene/2,2,4-Trimethylepentane solution.

[7] = solvent 1,4-Dioxane, anti-solvent Water
[8] = solvent Diethanolamine, anti-solvent Water
[9] = solvent Diethylene glycol, anti-solvent Water
[10] = solvent Dimethyl sulfoxide, anti-solvent Water
[11] = 1 month Accelerated 40° C./75% RH
[12] = 1.5 months Accelerated 40° C./75% RH
[13] = 2 months Accelerated 40° C./75% RH
[14] = 3 months Accelerated 40° C./75% RH
[15] = 5 months Accelerated 40° C./75% RH
[16] = 6 months Accelerated 40° C./75% RH
[17] = solvent 1,4-Dioxane, anti-solvent 2,2,4-Trimethylpentane
[18] = solvent 2-Methoxyethanol, anti-solvent 2,2,4-Trimethylpentane
[19] = solvent 4-methyl-2-pentanone, anti-solvent 2,2,4-Trimethylpentane
[20] = solvent Acetonitrile, anti-solvent Water
[21] = solvent Ethyl acetate, anti-solvent 2,2,4-Trimethylpentane
[22] = solvent Isobutanol, anti-solvent Water
[23] = solvent Isopropanol, anti-solvent Water
[24] = solvent Tetrahydrofuran, anti-solvent Water

## C=C(C)[C@@H]1CCC(C)=C[C@H]1c1c(O)cc(CCCCC)cc1O [CBD, (1′R,2′R)-5′-methyl-4-pentyl-2′-(prop-1-en-2-yl)-1′,2′,3′,4′-tetrahydro-[1,1′-biphenyl]-2,6-diol]
[1]; 1,2-dimethoxyethane, organic solvent or mixture
  solubility: > 100 mg/mL
[1]; 1,4-dioxane, organic solvent or mixture
  solubility: > 100 mg/mL
[1]; 1-propanol, organic solvent or mixture
  solubility: > 100 mg/mL
[1]; 2-butanone, organic solvent or mixture
  solubility: > 100 mg/mL
[1]; 10/90 water/ethanol, organic solvent or mixture
  solubility: > 100 mg/mL
[1]; 30/70 water/IPA, organic solvent or mixture
  solubility: > 20 mg/mL
[1]; 30/70 water/ethanol, organic solvent or mixture
  solubility: 20 to 70 mg/mL (≈ 63.6 to 223 mM)
[1]; 40/60 Water Methanol
  Solubility at RT: oil
[1]; 45/65 Water Methanol
  Solubility at RT: 3.4 mg/mL (≈ 10.8 mM)
[1]; 50/50 Water/Methanol
  Solubility at RT: 0.3 mg/mL (≈ 0.954 mM)
[1]; 50/50 water/IPA, aqueous with cosolvent or surfactant or cyclodextrin
  solubility: 10 to 20 mg/mL (≈ 31.8 to 63.6 mM)
[1]; 50/50 water/ethanol, aqueous with cosolvent or surfactant or cyclodextrin
  solubility: < 5 mg/mL
[1]; ACN, organic solvent or mixture
  solubility: > 100 mg/mL
[1]; CIP 100, aqueous with cosolvent or surfactant or cyclodextrin
  solubility: < 1 mg/mL
[1]; CIP 200, aqueous with cosolvent or surfactant or cyclodextrin
  solubility: < 1 mg/mL
[1]; DCM, organic solvent or mixture
  solubility: > 100 mg/mL
[1]; EtOAc, organic solvent or mixture
  solubility: > 100 mg/mL
[1]; EtOH, organic solvent or mixture
  solubility: > 100 mg/mL
[1]; IPA, organic solvent or mixture
  solubility: > 100 mg/mL
[1]; IPOAc, organic solvent or mixture
  solubility: > 100 mg/mL
[1]; MTBE, organic solvent or mixture
  solubility: > 100 mg/mL
[1]; MeOH, organic solvent or mixture
  solubility: > 100 mg/mL
[1]; MeTHF saturated with water, organic solvent or mixture
  solubility: > 100 mg/mL
[1]; MeTHF, organic solvent or mixture
  solubility: > 100 mg/mL
[1]; NMPO, organic solvent or mixture
  solubility: > 100 mg/mL
[1]; THF, organic solvent or mixture
  solubility: > 100 mg/mL
[1]; acetone, organic solvent or mixture
  solubility: > 100 mg/mL
[1]; anisole, organic solvent or mixture
  solubility: > 100 mg/mL
[1]; chloroform, organic solvent or mixture
  solubility: > 100 mg/mL
[1]; cumene, organic solvent or mixture
  solubility: > 100 mg/mL
[1]; cyclohexane, organic solvent or mixture
  solubility: > 100 mg/mL
[1]; diethyl ether, organic solvent or mixture
  solubility: > 100 mg/mL
[1]; ethyl formate, organic solvent or mixture
  solubility: > 100 mg/mL
[1]; heptane, organic solvent or mixture
  solubility: 64.6 mg/mL (≈ 205 mM)
[1]; isobutanol, organic solvent or mixture
  solubility: > 100 mg/mL
[1]; isooctane, organic solvent or mixture
  solubility: 43.9 mg/mL (≈ 140 mM)
[1]; methylcyclohexane, organic solvent or mixture
  solubility: > 100 mg/mL
[1]; n-decane, organic solvent or mixture
  solubility: 36.8 mg/mL (≈ 117 mM)
[1]; n-hexane, organic solvent or mixture
  solubility: > 100 mg/mL
[1]; p-xylene, organic solvent or mixture
  solubility: > 100 mg/mL
[1]; silicone oil, oil or lipid, Silcone oil
  solubility: 9.7 mg/mL (≈ 30.8 mM)
[1]; toluene, organic solvent or mixture
  solubility: > 100 mg/mL
[1]; water
  solubility: < 0.13 mg/mL
[2]
  Hygroscopicity: not hygroscopic
[3]; AAC for two days
  Effect of accelerated aging conditions: did not lead to any physical changes
[3]; ground 1 hour at 30 Hz with 10 μL solvent, all samples
  Form by HT-XRPD analysis: Form A
[4]; AAC for 2 days
  Effect of accelerated aging conditions: no effect on the solid form
[4]; [7]
  Solid form by HT-XRPD Ambient After AAC: oily
  Solid form by HT-XRPD Ambient Before AAC: oily
  Solid form by HT-XRPD Vacuum: Oily
  Solids after?: No
[4]; [8]
  Solid form by HT-XRPD Vacuum: Oily
  Solids after?: Yes
[4]; [9]
  Solid form by HT-XRPD Vacuum: Oily
  Solids after?: Yes
[4]; [10]
  Solid form by HT-XRPD Vacuum: Oily
  Solids after?: Yes
[4]; water as anti-solvent, except 1,4-dioxane, diethylene glycol, DMSO and diethanolamine
  XRPD of crystalline precipitates: indicative of Form A
[5]; 0 month
  Chromatographic Purity: 4-Monobromo-cannabidiol: <0.03%
  Chromatographic Purity: Individual unspecified impurity: <0.03%
  Chromatographic Purity: Olivetol: <0.03%
  Chromatographic Purity: Sum of impurities: <0.05%
[5]; 1 month 5° C.
  Chromatographic Purity: 4-Monobromo-cannabidiol: <0.03%
  Chromatographic Purity: Individual unspecified impurity: <0.03%
  Chromatographic Purity: Olivetol: <0.03%
  Chromatographic Purity: Sum of impurities: <0.05%
[5]; 1 month 25° C./60% RH
  Chromatographic Purity: 4-Monobromo-cannabidiol: <0.03%
  Chromatographic Purity: Individual unspecified impurity: <0.03%
  Chromatographic Purity: Olivetol: <0.03%
  Chromatographic Purity: Sum of impurities: <0.05%
[5]; [11]
  Chromatographic Purity: 4-Monobromo-cannabidiol: <0.03%
  Chromatographic Purity: Individual unspecified impurity: <0.03%
  Chromatographic Purity: Olivetol: <0.03%
  Chromatographic Purity: Sum of impurities: <0.05%
[5]; 1.5 months 25° C./60% RH
  Chromatographic Purity: 4-Monobromo-cannabidiol: <0.03%
  Chromatographic Purity: Individual unspecified impurity: <0.03%
  Chromatographic Purity: Olivetol: <0.03%
  Chromatographic Purity: Sum of impurities: <0.05%
[5]; [12]
  Chromatographic Purity: 4-Monobromo-cannabidiol: <0.03%
  Chromatographic Purity: Individual unspecified impurity: <0.03%
  Chromatographic Purity: Olivetol: <0.03%
  Chromatographic Purity: Sum of impurities: <0.05%
[5]; [13]
  Chromatographic Purity: 4-Monobromo-cannabidiol: <0.03%
  Chromatographic Purity: Individual unspecified impurity: <0.03%
  Chromatographic Purity: Olivetol: <0.03%
  Chromatographic Purity: Sum of impurities: <0.05%
[5]; [14]
  Chromatographic Purity: 4-Monobromo-cannabidiol: <0.03%
  Chromatographic Purity: Individual unspecified impurity: <0.03%
  Chromatographic Purity: Olivetol: <0.03%
  Chromatographic Purity: Sum of impurities: <0.05%
[5]; [15]
  Chromatographic Purity: 4-Monobromo-cannabidiol: <0.03%
  Chromatographic Purity: Individual unspecified impurity: <0.03%
  Chromatographic Purity: Olivetol: <0.03%
  Chromatographic Purity: Sum of impurities: <0.05%
[5]; 6 months 25° C./60% RH
  Chromatographic Purity: 4-Monobromo-cannabidiol: <0.03%
  Chromatographic Purity: Individual unspecified impurity: <0.03%
  Chromatographic Purity: Olivetol: <0.03%
  Chromatographic Purity: Sum of impurities: <0.05%
[5]; [16]
  Chromatographic Purity: 4-Monobromo-cannabidiol: <0.03%
  Chromatographic Purity: Individual unspecified impurity: <0.03%
  Chromatographic Purity: Olivetol: <0.03%
  Chromatographic Purity: Sum of impurities: <0.05%
[6]
  Effect of accelerated aging conditions: no effect on the physical appearance
[6]; Toluene/2,2,4-Trimethylepentane solution
  XRPD of solid after evaporation: Form A
[6]; [17]
  Precipitation?: No
  Solid form after evaporation After AAC: Oil
  Solid form after evaporation Before AAC: Oil
[6]; [7]
  Precipitation?: No
  Solid form after evaporation After AAC: Oil
  Solid form after evaporation Before AAC: Oil
[6]; [18]
  Precipitation?: No
  Solid form after evaporation After AAC: Oil
  Solid form after evaporation Before AAC: Oil
[6]; [19]
  Precipitation?: No
  Solid form after evaporation After AAC: Oil
  Solid form after evaporation Before AAC: Oil
[6]; [20]
  Precipitation?: No
  Solid form after evaporation After AAC: Oil
  Solid form after evaporation Before AAC: Oil
[6]; [21]
  Precipitation?: No
  Solid form after evaporation After AAC: Oil
  Solid form after evaporation Before AAC: Oil
[6]; [22]
  Precipitation?: No
  Solid form after evaporation After AAC: Oil
  Solid form after evaporation Before AAC: Oil
[6]; [23]
  Precipitation?: No
  Solid form after evaporation After AAC: Oil
  Solid form after evaporation Before AAC: Oil
[6]; [24]
  Precipitation?: No
  Solid form after evaporation After AAC: Oil
  Solid form after evaporation Before AAC: Oil
[6]; solvent Toluene, anti-solvent 2,2,4-Trimethylpentane
  Precipitation?: No
